Data taken from patent US20230139025A1, “ANTIOXIDANT FOR USE IN TREATMENT FOR RIBE” (Institute of Hematology and Blood Diseases Hospital, CAMS & …, priority 2021, published 2023).

B1: IL-1α: cytokine added to the in-vitro culture system (protein, UniProt P01583 113-271, looked up)
Interleukin-1 alpha: SAPFSFLSNVKYNFMRIIKYEFILNDALNQSIIRANDQYLTAAALHNLDEAVKFDMGAYKSSKDDAKITVILRISKTQLYVTAQDEDQPVLLKEMPEIPKTITGSETNLLFFWETHGTKNYFTSVAHPNLFIATKQDYWVCLAGGPPSITDFQILENQA

What was measured:
[1] = test system: in vitro bystander human HSPCs; experiment: Transplantation of in vitro antioxidant-treated bystander human CD34+ cells into NOG mice; type: in vivo; conditions: for HPC (CD34+CD38+) engraftment in BM: antioxidant treatment in vitro, FIG. 9C
Source text: (A) Collected human CD34^+ cells from FIG. 8(A) were transplanted into NOG mice. Mean human cell engraftment (left) after human CD34^+ cells collected from FIG. 8(A) transplanted into NOG mice and bars represent the fold difference of engraftment levels from each group (right, n = 6 to 8 per group). (B-C) Frequency of human CD34^+CD38^- cells (B) and CD34^+CD38^+ cells (C) in the BM of recipient; (D) Mean engraftment level of human cells in the spleen of recipients; and (E) Number of hematopoietic clones formed by human CD34^+ cells of each group (^∗p < 0.05, ^∗∗p <[…] 0.01, ^∗∗∗p < 0.001). For the in vitro RIBE model, we cocultured CB-CD34^+ cells with 10 Gy irradiated or nonirradiated human BM cells using a transwell system. After 17 hours of coculture, the CD34^+ cells in the insert (in vitro bystander cells) were collected for subsequent experiments (FIG. 2). Female NOG mice were irradiated at a dose of 2.0 Gy one day before transplantation. The homing human CD34^+ cells were transplanted into recipients at a dose of 5,000 cells/mouse intravenously. For serial transplantations, 1×10^7 whole BM cells from each primary recipient were intravenously transplanted into secondary recipient mice that were exposed to sublethal irradiation (2.0 Gy). Next, we asked whether the pharmacological inhibition of ROS elevation could protect human HSPCs from functional degradation. We used three antioxidants: N-acetyl-L-cysteine (NAC), sulforaphane (SF) and resveratrol (Res), to eliminate excessive ROS from bystander human HSPCs in vitro. For the in vitro RIBE, the BM cells were treated with NAC, SF or Res for 30 minutes before irradiation, and the antioxidants continued to exist in the coculture system until the CB CD34^+ cells were collected for analysis and some were transplanted into sublethally irradiated NOG mice intravenously (FIG. 7).

[2] = test system: in vivo bystander human HSPCs; experiment: In vivo RIBE model with antioxidant treatment, transplantation of homing human CD34+ cells into NOG mice; conditions: FIG. 11C
Procedure: NOG mice were given antioxidants for 7 days before irradiation.
For the in vivo RIBE model, CD34^+ cells purified from human cord blood (CB) were intravenously injected into 10 Gy irradiated (RIBE group) or nonirradiated (Control group) NOD/Shi-scid/IL-2Rγ^null (NOG) mice separately. After 17 hours, homing human CD34^+ cells (in vivo bystander cells) from recipients were individually detected or sorted for subsequent experiments (FIG. 1).
For the in vivo RIBE, the mice were treated with NAC, SF or Res for 7 days. CB CD34^+ cells were injected into nonirradiated or 10 Gy irradiated NOG mice in either the control, RIBE or RIBE with antioxidant treatment groups. After 17 hours, the homing human CD34^+ cells were sorted individually and transplanted into sublethally irradiated NOG mice (FIG. 10).

HSPCs (CD34+ cells) = experiment: γ-H2AX protein by Western blot after cytokine addition to in vitro culture system; type: cell-based, human; conditions: cytokine added to in vitro culture system, FIG. 6H
Procedure: (A) Flow cytometric analysis of fold change of ROS levels by DCF-DA staining in human CD34^+ cells of in vitro RIBE model; (B) Western blot verified the expression of related signaling pathway at the protein levels.
For the in vitro RIBE model, we cocultured CB-CD34^+ cells with 10 Gy irradiated or nonirradiated human BM cells using a transwell system. After 17 hours of coculture, the CD34^+ cells in the insert (in vitro bystander cells) were collected for subsequent experiments (FIG. 2).
Cytokines may exert multiple functions involving stress and inflammatory responses, which are also associated with RIBE. We observed several cytokines including IL-1, IL-6, IL-8, TNF-α, etc., were increased after irradiation (FIG. 6F). […] Moreover, we added IL-1α or IL-1ra to the in-vitro culture system and then measured the γ-H2AX protein by Western blot.

HSPCs = experiment: ROS levels of HSPCs in cytokine-treated groups; type: cell-based, human

Molecule | HPC (CD34+CD38+) engraftment in BM [1] | HPC (CD34+CD38+) engraftment in BM [2] | myeloid and erythroid engraftment ([1]; antioxidant administration in vitro, BM, vs RIBE group) | DNA damage of HSPCs (γ-H2AX protein level) (HSPCs (CD34+ cells)) | ROS levels of HSPCs (HSPCs)
C[S+]([O-])CCCCN=C=S (centres unmarked) [SF, sulforaphane] | could improve HPC engraftment |  |  |  | 
Oc1ccc(C=Cc2cc(O)cc(O)c2)cc1 [Res, resveratrol] | could improve HPC engraftment | could improve HPC engraftment in vivo | significantly higher myeloid and erythroid engraftment than the RIBE group |  | 
IL-1ra: cytokine added to the in-vitro culture system |  |  |  | can slightly increase DNA damage of bystander HSPCs | did not change
B1 |  |  |  | could loosen DNA damage of HSPCs both in the control and RIBE groups | did not change
